The target of test [1] is recombinant human FGFR2 cytoplasmic domain (amino acids 403-822) (Homo sapiens (Human), UniProt P21802). Description: FGFR2 enzyme activity assay (LanthaScreen TR-FRET). It counts as biochemical. The following applies: 15 μM ATP, 20 min incubation at 22° C., average of multiple determinations if made, read-out: FGFR2 Enz FRET IC50. The method, boiled down: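 Substrate phosphorylation was read by TR-FRET using Eu-PY20 antibody (60 min, 22 °C) after a 20 min, 22 °C reaction. The reaction used 15 μM ATP, 100 nM fluorescent poly-GT peptide and His-tagged FGFR2 403-822 ([…]) at pH 7.5 with 2% DMSO.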
On the technique in general: TR-FRET usually uses a lanthanide donor and a delayed reading to cut background.

Test [2] deals with FGFR3 (SEQ ID NO: 5, amino acids 449-759) (Homo sapiens (Human), UniProt P22607). Nature of the test: LC/MS FGFR3 kobs assay (covalent protein modification). It counts as binding. The following applies: 500 nM FGFR3, 3 μM compound. The method, boiled down:
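Each time-point sample was quenched in 0.4% formic acid and analyzed by Q-TOF LC/MS. Deconvoluted signals gave percent modified and unmodified protein, normalized to the DMSO control, and the decay of unmodified protein yielded kobs.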

Test [3] concerns the target T1, HEK-293 cells transfected with dox-inducible human wild type FGFR3 (Homo sapiens (Human), UniProt P22607). Description: FGFR3 pFGFR cell assay (ELISA). It counts as cell-based. The following applies: HEK-293 dox-inducible FGFR3, 1 hour compound, 100 ng/ml FGF-acidic. The method, boiled down:
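Doxycycline-induced (1 μg/ml) HEK-293 cells expressing wild-type human FGFR3, treated 1 h with compound (1:3 series, top final 5 μM), then stimulated 5 min with 100 ng/ml FGF-acidic. Phospho-FGFR3 measured by ELISA (total FGFR3 capture, phosphotyrosine detection, OD 450 nm); IC50 from 4-parameter fit of POC values.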
For orientation: In an ELISA, binding on a coated surface is turned into a signal by an enzyme label.

The target in test [4] is T1, HEK-293 cells transfected with dox-inducible human wild type FGFR3. Nature of the test: FGFR3 pERK cell assay. It is filed as cell-based. The following applies: HEK-293 dox-inducible FGFR3, 1 hour compound, 100 ng/ml FGF-acidic; maximum concentration 5 μM. Summed up:
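Doxycycline-induced cells preincubated 1 h at 37 °C with compound (1:3 dilutions, top 5 μM final), then stimulated 5 min with 100 ng/ml FGF-acidic. Lysate phospho-ERK1/2 measured by MSD sandwich assay; IC50 at 50 POC from 4-parameter fit, normalised to no-compound and control-compound wells.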

19 compounds from patent US12180207B2 (ARRAY BIOPHARMA INC., priority 2018, dated 2024) can be followed below.

The IC50 is the concentration needed to halve the response being measured.

T1 sequence (P22607 23-806): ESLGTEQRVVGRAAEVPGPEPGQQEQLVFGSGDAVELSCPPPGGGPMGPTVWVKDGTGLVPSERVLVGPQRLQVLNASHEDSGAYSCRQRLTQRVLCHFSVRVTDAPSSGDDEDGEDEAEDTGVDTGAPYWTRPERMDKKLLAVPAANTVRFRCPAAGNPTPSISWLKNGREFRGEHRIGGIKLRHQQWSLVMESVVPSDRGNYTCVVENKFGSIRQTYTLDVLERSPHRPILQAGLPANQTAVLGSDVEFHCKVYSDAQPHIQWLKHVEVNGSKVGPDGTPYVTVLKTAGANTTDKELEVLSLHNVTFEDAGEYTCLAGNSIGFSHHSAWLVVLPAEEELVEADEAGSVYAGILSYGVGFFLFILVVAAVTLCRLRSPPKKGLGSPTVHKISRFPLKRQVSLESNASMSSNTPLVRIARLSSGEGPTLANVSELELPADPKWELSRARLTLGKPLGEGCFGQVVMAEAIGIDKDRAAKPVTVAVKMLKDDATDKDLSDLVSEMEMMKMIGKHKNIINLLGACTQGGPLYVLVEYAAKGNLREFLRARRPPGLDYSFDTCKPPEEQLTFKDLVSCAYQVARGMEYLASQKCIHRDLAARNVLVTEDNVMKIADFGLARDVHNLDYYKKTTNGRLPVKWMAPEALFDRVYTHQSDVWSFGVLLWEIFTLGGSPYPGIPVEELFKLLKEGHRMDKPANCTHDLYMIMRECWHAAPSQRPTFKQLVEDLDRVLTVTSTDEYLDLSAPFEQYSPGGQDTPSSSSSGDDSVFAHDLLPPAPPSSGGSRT
FGFR3 (SEQ ID NO: 5, amino acids 449-759), sequence (P22607 449-759): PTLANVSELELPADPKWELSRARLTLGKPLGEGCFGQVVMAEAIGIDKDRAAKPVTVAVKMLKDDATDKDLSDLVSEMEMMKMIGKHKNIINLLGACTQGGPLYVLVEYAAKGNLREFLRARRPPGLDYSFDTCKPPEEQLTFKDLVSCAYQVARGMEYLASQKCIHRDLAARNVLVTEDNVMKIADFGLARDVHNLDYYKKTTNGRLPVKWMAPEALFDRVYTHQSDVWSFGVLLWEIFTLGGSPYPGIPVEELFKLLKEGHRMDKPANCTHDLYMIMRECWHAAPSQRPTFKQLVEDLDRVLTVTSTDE
recombinant human FGFR2 cytoplasmic domain (amino acids 403-822), sequence (P21802 402-821): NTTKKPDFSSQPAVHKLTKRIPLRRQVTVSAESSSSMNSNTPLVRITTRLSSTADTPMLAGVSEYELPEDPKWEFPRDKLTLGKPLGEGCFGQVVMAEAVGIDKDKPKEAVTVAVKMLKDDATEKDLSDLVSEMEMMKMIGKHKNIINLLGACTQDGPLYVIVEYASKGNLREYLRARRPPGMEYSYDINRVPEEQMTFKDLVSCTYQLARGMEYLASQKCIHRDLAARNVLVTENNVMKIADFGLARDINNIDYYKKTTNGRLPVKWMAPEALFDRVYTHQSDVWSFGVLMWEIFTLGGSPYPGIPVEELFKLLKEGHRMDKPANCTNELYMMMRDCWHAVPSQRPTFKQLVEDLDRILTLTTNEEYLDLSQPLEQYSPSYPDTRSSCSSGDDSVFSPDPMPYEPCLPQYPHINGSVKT

For the compound `C=CC(=O)N1CCC(C#N)(C(=O)N2CCC(n3cc(-c4cc(OC)c5c(C#N)cnn5c4)cn3)CC2)CC1` [Example 14, 6-(1-(1-(1-acryloyl-4-cyanopiperidine-4-carbonyl)piperidin-4-yl)-1H-pyrazol-4-yl)-4-methoxypyrazolo[1,5-a]pyridine-3-carbonitrile], the IC50 is 3 nM in test [1] and 25 nM in test [3]. In test [2], the “FGFR3 Enz kobs” value stood at 0.00997 min⁻¹.

Take `C=CC(=O)N1CCC(C(=O)N2CCC(n3cc(-c4cc(OC)c5c(C#N)cnn5c4)cn3)CC2)C(F)(F)C1` (stereo not drawn) [Example 15, 6-(1-(1-(1-acryloyl-3,3-difluoropiperidine-4-carbonyl)piperidin-4-yl)-1H-pyrazol-4-yl)-4-methoxypyrazolo[1,5-a]pyridine-3-carbonitrile]: the IC50 is 2 nM in test [1] and 10 nM in test [3]. Further, the “FGFR3 Enz kobs” value in test [2] was 0.01716 min⁻¹.

Turning to `C=CC(=O)N1CC2(CCC(C(=O)N3CCC(n4cc(-c5cc(OC)c6c(C#N)cnn6c5)cn4)CC3)CC2)C1` [Example 21, 6-(1-(1-(2-acryloyl-2-azaspiro[3.5]nonane-7-carbonyl)piperidin-4-yl)-1H-pyrazol-4-yl)-4-methoxypyrazolo[1,5-a]pyridine-3-carbonitrile], the IC50 worked out at 3 nM in test [1] and 40 nM in test [3]. Further, the “FGFR3 Enz kobs” value in test [2] worked out at 0.00661 min⁻¹.

Take `C=CC(=O)Nc1cccc(C(=O)N2CCC(n3cc(-c4cc(OC)c5c(C#N)cnn5c4)cn3)CC2)c1` [Example 22, N-(3-(4-(4-(3-cyano-4-methoxypyrazolo[1,5-a]pyridin-6-yl)-1H-pyrazol-1-yl)piperidine-1-carbonyl)phenyl)acrylamide]: the IC50 in test [1] stood at 5 nM; in test [3], 87 nM. Also, the “FGFR3 Enz kobs” value in test [2] amounted to 0.0108 min⁻¹.

Take `C=CC(=O)Nc1ccc(C(=O)N2CCC[C@@H](n3cc(-c4cc(OC)c5c(C#N)cnn5c4)cn3)C2)cc1` [Example 23, (R)-N-(4-(3-(4-(3-cyano-4-methoxypyrazolo[1,5-a]pyridin-6-yl)-1H-pyrazol-1-yl)piperidine-1-carbonyl)phenyl)acrylamide]: the IC50 in test [1] was 12 nM; in test [3] it was 90 nM. Also, the “FGFR3 Enz kobs” value in test [2] came to 0.01176 min⁻¹.

As to `C=CC(=O)Nc1cccc(C(=O)N2CCC[C@@H](n3cc(-c4cc(OC)c5c(C#N)cnn5c4)cn3)C2)c1` [Example 24, (R)-N-(3-(3-(4-(3-cyano-4-methoxypyrazolo[1,5-a]pyridin-6-yl)-1H-pyrazol-1-yl)piperidine-1-carbonyl)phenyl)acrylamide], the IC50 in test [1] is 23 nM; in test [3], 435 nM. Besides, the “FGFR3 Enz kobs” value in test [2] is 0.00708 min⁻¹.

For the compound `C=CC(=O)Nc1ccccc1C(=O)N1CCC[C@@H](n2cc(-c3cc(OC)c4c(C#N)cnn4c3)cn2)C1` [Example 25, (R)-N-(2-(3-(4-(3-cyano-4-methoxypyrazolo[1,5-a]pyridin-6-yl)-1H-pyrazol-1-yl)piperidine-1-carbonyl)phenyl)acrylamide], the IC50 in test [1] came out at 18 nM; in test [3], 83 nM. The “FGFR3 Enz kobs” value in test [2] is 0.00672 min⁻¹.

With `C=CC(=O)N1CC[C@H](C(=O)N2CCC(n3cc(-c4cc(OC)c5c(C#N)cnn5c4)cn3)CC2)C1` [Example 28, (S)-6-(1-(1-(1-acryloylpyrrolidine-3-carbonyl)piperidin-4-yl)-1H-pyrazol-4-yl)-4-methoxypyrazolo[1,5-a]pyridine-3-carbonitrile], the IC50 is 5 nM in test [1] and 285 nM in test [3]. Also, the “FGFR3 Enz kobs” value in test [2] was 0.00294 min⁻¹.

As to `C=CC(=O)N1CC(C(=O)N2C3CCC2CN(c2ccc(-c4cc(OC)c5c(C#N)cnn5c4)cn2)C3)C1` [Example 50, 6-(6-(8-(1-acryloylazetidine-3-carbonyl)-3,8-diazabicyclo[3.2.1]octan-3-yl)pyridin-3-yl)-4-methoxypyrazolo[1,5-a]pyridine-3-carbonitrile], the IC50 in test [1] worked out at 4 nM; in test [4], 25 nM. The “FGFR3 Enz kobs” value in test [2] stood at 0.04375 min⁻¹.

`C=CC(=O)N1CC(C(=O)N2CC3CCC(C2)N3c2ccc(-c3cc(OC)c4c(C#N)cnn4c3)cn2)C1` [Example 51, 6-(6-(3-(1-acryloylazetidine-3-carbonyl)-3,8-diazabicyclo[3.2.1]octan-8-yl)pyridin-3-yl)-4-methoxypyrazolo[1,5-a]pyridine-3-carbonitrile]: the results for the IC50 in test [1] and in test [4] were 9 nM and 61 nM, respectively. In addition, the “FGFR3 Enz kobs” value in test [2] turned out to be 0.01769 min⁻¹.

As for `C=CC(=O)N1CC(C(=O)N2C3CC2CN(c2ccc(-c4cc(OC)c5c(C#N)cnn5c4)cn2)C3)C1` [Example 52, 6-(6-(6-(1-acryloylazetidine-3-carbonyl)-3,6-diazabicyclo[3.1.1]heptan-3-yl)pyridin-3-yl)-4-methoxypyrazolo[1,5-a]pyridine-3-carbonitrile], the IC50 came to 14 nM in test [1] and 262 nM in test [4]. Also, in test [2], the “FGFR3 Enz kobs” value was determined as 0.00929 min⁻¹.

`C=CC(=O)N1CC(C)(C(=O)N2CCC(n3ncc(-c4cc(OC)c5c(C#N)cnn5c4)c3C)CC2)C1` [Example 86, 6-(1-(1-(1-acryloyl-3-methylazetidine-3-carbonyl)piperidin-4-yl)-5-methyl-1H-pyrazol-4-yl)-4-methoxypyrazolo[1,5-a]pyridine-3-carbonitrile]: the IC50 in test [1] was 96 nM; in test [4], 159 nM. In addition, the “FGFR3 Enz kobs” value in test [2] was determined as 0.02116 min⁻¹.

With `C=CC(=O)N1CC(C(=O)N2CCC(n3ncc(-c4cc(OC)c5c(C#N)cnn5c4)c3C)CC2)C1(C)C` (stereo not drawn) [Example 87, 6-(1-(1-(1-acryloyl-2,2-dimethylazetidine-3-carbonyl)piperidin-4-yl)-5-methyl-1H-pyrazol-4-yl)-4-methoxypyrazolo[1,5-a]pyridine-3-carbonitrile], the IC50 was found to be 18 nM in test [1] and 520 nM in test [4]. Besides, the “FGFR3 Enz kobs” value in test [2] came to 0.00502 min⁻¹.

As for `C=CC(=O)N1CC(OC)(C(=O)N2CCC(n3ncc(-c4cc(OC)c5c(C#N)cnn5c4)c3C)CC2)C1` [Example 88, 6-(1-(1-(1-acryloyl-3-methoxyazetidine-3-carbonyl)piperidin-4-yl)-5-methyl-1H-pyrazol-4-yl)-4-methoxypyrazolo[1,5-a]pyridine-3-carbonitrile], the results for the IC50 in test [1] and in test [4] were 69 nM and 34 nM, respectively. Besides, the “FGFR3 Enz kobs” value in test [2] stood at 0.05581 min⁻¹.

`C=CC(=O)N1CC(CN2CCC(n3ncc(-c4cc(OC)c5c(C#N)cnn5c4)c3C)CC2)C1` [Example 89, 6-(1-(1-((1-acryloylazetidin-3-yl)methyl)piperidin-4-yl)-5-methyl-1H-pyrazol-4-yl)-4-methoxypyrazolo[1,5-a]pyridine-3-carbonitrile]: the IC50 amounted to 50 nM in test [1] and 22 nM in test [4]. The “FGFR3 Enz kobs” value in test [2] worked out at 0.02499 min⁻¹.

Take `C=CC(=O)N1CC(C)(CN2CCC(n3ncc(-c4cc(OC)c5c(C#N)cnn5c4)c3C)CC2)C1` [Example 90, 6-(1-(1-((1-acryloyl-3-methylazetidin-3-yl)methyl)piperidin-4-yl)-5-methyl-1H-pyrazol-4-yl)-4-methoxypyrazolo[1,5-a]pyridine-3-carbonitrile]: the IC50 in test [1] was 56 nM; in test [4], 43 nM. Besides, the “FGFR3 Enz kobs” value in test [2] worked out at 0.01468 min⁻¹.

Regarding `C=CC(=O)N1CC(CN2CCC(n3ncc(-c4cc(OC)c5c(C#N)cnn5c4)c3C)CC2)(OC)C1` [Example 91, 6-(1-(1-((1-acryloyl-3-methoxyazetidin-3-yl)methyl)piperidin-4-yl)-5-methyl-1H-pyrazol-4-yl)-4-methoxypyrazolo[1,5-a]pyridine-3-carbonitrile], the IC50 in test [1] stood at 99 nM; in test [4], 15 nM. Moreover, the “FGFR3 Enz kobs” value in test [2] was found to be 0.04322 min⁻¹.

On to `C=CC(=O)N1CC(CN2CC(n3ncc(-c4cc(OC)c5c(C#N)cnn5c4)c3C)C2)C1` [Example 92], for which the IC50 in test [1] came out at 131 nM; in test [4] it was 205 nM. The “FGFR3 Enz kobs” value in test [2] is 0.00836 min⁻¹.

On to `C=CC(=O)N1CC(C)(CN2CC(n3ncc(-c4cc(OC)c5c(C#N)cnn5c4)c3C)C2)C1` [Example 93, 6-(1-(1-((1-acryloyl-3-methylazetidin-3-yl)methyl)azetidin-3-yl)-5-methyl-1H-pyrazol-4-yl)-4-methoxypyrazolo[1,5-a]pyridine-3-carbonitrile], for which the IC50 in test [1] came out at 127 nM; in test [4] it was 174 nM. Besides, in test [2], the “FGFR3 Enz kobs” value was 0.00896 min⁻¹.
